Laboratory results as given in publication PMC7525093, “Bis-Quinolinium Cyclophane Blockers of SK Potassium Channels Are Antagonists of M3 Muscarinic Acetylcholine Receptors” (Frontiers in Pharmacology, 2020).
Like-named read-outs stand apart in the source and are kept apart here.

Experiments:
bladder = experiment: Isometric bladder ring tension measurement; parameters: species or system mouse; settings: 3.5 μM; 0.5 μM carbachol
Protocol: Mice used in these studies were BALB/C mice from Jackson Labs. All animal procedures were reviewed and approved by the University of Texas Health Science Center at San Antonio Institutional Animal Care and Use Committee. For tracheal constriction studies, animals were deeply anesthetized with isoflurane and then sacrificed by cervical dislocation. Isometric tracheal contraction measurements were performed as previously described ([Semenov et al., 2012]). Trachea were removed and surrounding tissues dissected in ice-cold physiologic saline solution (PSS) consisting of 119 mM NaCl, 4.7 mM KCl, 2.0 mM CaCl2, 1.0 mM KH2PO4, 1.17 mM MgSO4, 18 mM NaHCO3, 0.026 mM EDTA, 11 mM glucose, and 12.5 mM sucrose. Trachea were cut below the pharynx and above the primary bronchus bifurcation. Two metal wires, attached to a force transducer and micrometer (Radnoti, LLC), were threaded into the lumen of the trachea. Trachea were placed into an oxygenated organ bath (95% O2, 5% CO2), at 37°C, pH 7.35 (after bubbling with 95% O2–5% CO2). Tracheal resting tension was readjusted to 1 gram over 1 h and then challenged with 67 mM potassium PSS with NaCl adjusted to 56.7 mM to maintain proper osmolarity (KPS). Trachea were challenged two or more times until reproducible contractile responses were achieved. All subsequent experimental drug responses were normalized to the KPS response. […]

M5 muscarinic receptor = target: T1, M5 muscarinic receptor (Homo sapiens, UniProt P08912); experiment: R-CEPIAer ER calcium assay, CHO cells transiently transfected with M5 receptor; format: cell-based
T1 construct: expressed in transfected cells; host or cells: CHO cells, transiently co-transfected with pCMV R-CEPIAer
T1 sequence (P08912 1-532): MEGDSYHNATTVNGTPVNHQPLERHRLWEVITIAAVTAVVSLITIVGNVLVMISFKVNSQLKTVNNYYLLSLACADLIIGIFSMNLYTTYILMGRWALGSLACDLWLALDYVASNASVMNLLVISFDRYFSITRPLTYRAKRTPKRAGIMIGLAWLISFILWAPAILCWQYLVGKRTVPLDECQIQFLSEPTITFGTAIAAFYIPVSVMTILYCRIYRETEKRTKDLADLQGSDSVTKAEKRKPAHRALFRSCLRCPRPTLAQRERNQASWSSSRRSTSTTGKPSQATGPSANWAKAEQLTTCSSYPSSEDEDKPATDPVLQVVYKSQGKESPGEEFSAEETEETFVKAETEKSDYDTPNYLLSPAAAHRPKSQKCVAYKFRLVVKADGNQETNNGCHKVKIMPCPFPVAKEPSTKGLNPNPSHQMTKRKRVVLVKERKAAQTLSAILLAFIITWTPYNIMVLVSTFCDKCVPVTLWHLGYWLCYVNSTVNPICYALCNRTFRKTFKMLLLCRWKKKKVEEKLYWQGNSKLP
Protocol: [Worded in the source for another target; used here, by the source, with some conditions changed.] The binding of antagonists to Gq-coupled receptors was determined by measuring IP3-mediated calcium depletion from the endoplasmic reticulum (ER). This was accomplished using CHO-K1 cells stably transfected with human M3 muscarinic acetylcholine receptor (CEM3000000, cDNA Resource Center, Bloomsburg University) and R-CEPIAer, a low affinity ER-targeted calcium indicator fluorescent protein ([Suzuki et al., 2014]). R-CEPIAer reporting of ER calcium concentration was assessed using 564 nm excitation light (>590 long-pass emission) at 20 second intervals on a Nikon swept-field confocal microscope using slit-scan mode, 2x2 Binning, and 100 millisecond frames. F/Fmax was fluorescence intensity normalized to maximal fluorescence intensity during the experiment. The response of cells to Gq-coupled receptor agonist were measured as the change in F/Fmax (ΔF/Fmax) from preagonist value to fluorescence minimum during agonist application (that occurs by IP3-mediated ER calcium depletion). […] Perfusion of each agonist application was for 2 min, while the antagonist overlapped and preceded the second agonist application by 3 min. […] IC50 was calculated by assaying fractional inhibition using a dose-response of antagonist concentrations (i.e. Figure 1D ). […]

M3 mACHR = target: T2, M3 mACHR (Homo sapiens, UniProt P20309); experiment: [3H]-NMS competition binding, M3 mACHR-expressing CHO cell membranes; settings: 0.9 nM [3H]-NMS
T2 construct: expressed in transfected cells; host or cells: membranes of M3 mACHR-expressing CHO cells
Protocol: Competition binding assays were done with [^3H]-N-methyl-scopolamine ([3H]-NMS, PerkinElmer) essentially as described ([Steinfeld et al., 2010]) with minor modifications. Membrane homogenates were prepared in HEPES assay buffer (20 mM HEPES, 100 mM NaCl, and 10 mM MgCl, pH 7.4) by trituration on ice through a 26-gauge needle followed by centrifugation at 39,000g in Sorval RC-6+ centrifuge. Membranes were resuspended in assay buffer and protein concentration determined by the method of Bradford using bovine serum albumin as a standard ([Bradford, 1976]). Membranes (25 µg) were incubated along with 0.9 nM ^3H- NMS without or with UCL1684 concentrations (10^-11M to 10^-4M in triplicate) for 120 min at 30°C in 96 multiwell GF/C filter plates (MilliporeSigma) coated with 0.3% polyethyleneimine (Sigma). The assay was terminated by rapid filtration using a MilliporeSigma vacuum manifold followed by three washes with ice-cold wash buffer (20mM HEPES, pH 7.4). Filters were removed and placed in 7 ml scintillation vials containing 5 ml scintillation fluid (National Diagnostics) and radioactivity counted using a Beckman LS-6500 ß-counter. Nonspecific binding was defined by 100 µM atropine. […]

mouse trachea = experiment: Isometric tracheal tension measurement (organ bath)
Protocol: Mice used in these studies were BALB/C mice from Jackson Labs. All animal procedures were reviewed and approved by the University of Texas Health Science Center at San Antonio Institutional Animal Care and Use Committee. For tracheal constriction studies, animals were deeply anesthetized with isoflurane and then sacrificed by cervical dislocation. Isometric tracheal contraction measurements were performed as previously described ([Semenov et al., 2012]). Trachea were removed and surrounding tissues dissected in ice-cold physiologic saline solution (PSS) consisting of 119 mM NaCl, 4.7 mM KCl, 2.0 mM CaCl2, 1.0 mM KH2PO4, 1.17 mM MgSO4, 18 mM NaHCO3, 0.026 mM EDTA, 11 mM glucose, and 12.5 mM sucrose. Trachea were cut below the pharynx and above the primary bronchus bifurcation. Two metal wires, attached to a force transducer and micrometer (Radnoti, LLC), were threaded into the lumen of the trachea. Trachea were placed into an oxygenated organ bath (95% O2, 5% CO2), at 37°C, pH 7.35 (after bubbling with 95% O2–5% CO2). Tracheal resting tension was readjusted to 1 gram over 1 h and then challenged with 67 mM potassium PSS with NaCl adjusted to 56.7 mM to maintain proper osmolarity (KPS). Trachea were challenged two or more times until reproducible contractile responses were achieved. All subsequent experimental drug responses were normalized to the KPS response. Bladder measurements were conducted in a similar manner as trachea with identical solutions. The bladder was excised and formed into a ring by cutting anterior and posterior portions before mounting on metal wires for force measurements. For the aorta preparation, the ascending thoracic aorta was excised and cut into 2–3 mm sections before mounting on wires for force measurements.

T2 sequence (P20309 whole entry): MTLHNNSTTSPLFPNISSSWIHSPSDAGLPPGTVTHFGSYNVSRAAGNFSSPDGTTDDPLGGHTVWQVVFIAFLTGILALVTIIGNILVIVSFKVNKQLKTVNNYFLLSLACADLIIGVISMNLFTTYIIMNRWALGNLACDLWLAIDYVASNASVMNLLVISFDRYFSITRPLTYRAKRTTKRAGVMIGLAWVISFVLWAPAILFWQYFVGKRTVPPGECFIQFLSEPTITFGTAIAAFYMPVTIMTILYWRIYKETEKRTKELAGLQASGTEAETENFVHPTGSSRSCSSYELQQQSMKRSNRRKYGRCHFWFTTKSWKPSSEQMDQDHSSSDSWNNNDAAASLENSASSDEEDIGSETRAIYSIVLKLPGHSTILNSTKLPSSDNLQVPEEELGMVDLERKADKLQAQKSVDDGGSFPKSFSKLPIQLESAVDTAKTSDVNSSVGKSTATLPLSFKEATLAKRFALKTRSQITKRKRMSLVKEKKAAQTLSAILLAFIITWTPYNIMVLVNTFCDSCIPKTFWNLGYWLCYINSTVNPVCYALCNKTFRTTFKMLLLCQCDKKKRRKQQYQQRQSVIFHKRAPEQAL

## c1cc2cc(c1)C[n+]1ccc(c3ccccc31)NCc1ccc(cc1)CNc1cc[n+](c3ccccc13)C2 [UCL 1684, 6,12,19,20,25,26-Hexahydro-5,27:13,18:21,24-trietheno-11,7-metheno-7H-dibenzo [b,n] [1,5,12,16]tetraazacyclotricosine-5,13-diium dibromide]
bladder
  Relaxation response of bladder: 31.4 ± 8.4
M5 muscarinic receptor
  IC50: 520 nM
M5 muscarinic receptor; 0.5 μM carbachol
  Hill slope of inhibition curve, M5 receptor: 1.4 ± 0.17
M3 mACHR; n=3 separate experiments, read-out: Average Ki, competition binding
  Ki: 909 nM
M3 mACHR; single experiment shown, read-out: pKi, representative binding experiment (converted)
  Ki: 1120 nM
Mouse trachea
  Relaxation of precontracted trachea: near complete relaxation
Mouse trachea; 3.5 μM, 0.5 μM carbachol
  Relaxation response of trachea, single dose: 95.4 ± 2.4
Mouse trachea; Mus musculus, read-out: IC50, relaxation of carbachol-precontracted trachea
  IC50: 430 nM
Mouse trachea; carbachol-evoked
  Reduction of carbachol-evoked ASM contractions: > 90%
Mouse trachea; data not shown
  Washout needed to restore tracheal responses to cholinergic agonists: at least an hour of washout
